# Experimental data from ChEMBL document CHEMBL4138123, “Design, synthesis and biological evaluation of novel pyrazolochalcones as potential modulators of PI3K/Akt/mTOR pathway and inducers of apoptosis in breast cancer cells” (Eur J Med Chem, 2017).
# What was measured:
# [1] = test system: HL-60(TB); assay: Cytotoxicity against human HL-60(TB) cells assessed as cell growth at 100 uM after 48 hrs by sulforhodamine B assay relative to control; format: functional; conditions: HL-60, 48 h, read-out: Activity
# [2] = test system: SNB-19; assay: Cytotoxicity against human SNB19 cells assessed as cell growth at 0.1 uM after 48 hrs by sulforhodamine B assay relative to control; format: functional; conditions: SNB-19, 48 h, read-out: Activity
# [3] = test system: UACC-62; assay: Cytotoxicity against human UACC62 cells assessed as cell growth at 0.1 uM after 48 hrs by sulforhodamine B assay relative to control; format: functional; conditions: UACC-62, 48 h, read-out: Activity
# [4] = test system: OVCAR-4; assay: Cytotoxicity against human OVCAR4 cells assessed as growth inhibition after 48 hrs by sulforhodamine B assay; format: functional; conditions: OVCAR-4, 48 h
# [5] = test system: IGROV-1; assay: Cytotoxicity against human IGROV1 cells assessed as cell growth at 0.1 uM after 48 hrs by sulforhodamine B assay relative to control; format: functional; conditions: IGROV-1, 48 h, read-out: Activity
# [6] = test system: SF-268; assay: Cytotoxicity against human SF268 cells assessed as cell growth at 0.01 uM after 48 hrs by sulforhodamine B assay relative to control; format: functional; conditions: SF-268, 48 h, read-out: Activity
# [7] = test system: OVCAR-3; assay: Cytotoxicity against human OVCAR3 cells assessed as cell growth at 1 uM after 48 hrs by sulforhodamine B assay relative to control; format: functional; conditions: OVCAR-3, 48 h, read-out: Activity
# [8] = test system: RXF 393; assay: Cytotoxicity against human RXF393 cells assessed as cell growth at 10 uM after 48 hrs by sulforhodamine B assay relative to control; format: functional; conditions: RXF 393, 48 h, read-out: Activity
# [9] = test system: SW-620; assay: Cytotoxicity against human SW620 cells assessed as cell growth at 10 uM after 48 hrs by sulforhodamine B assay relative to control; format: functional; conditions: SW-620, 48 h, read-out: Activity
# [10] = test system: DU-145; assay: Cytotoxicity against human DU145 cells assessed as cell growth at 100 uM after 48 hrs by sulforhodamine B assay relative to control; format: functional; conditions: DU-145, 48 h, read-out: Activity
# [11] = test system: MCF7; assay: Cytotoxicity against human MCF7 cells assessed as growth inhibition after 48 hrs by MTT assay; format: functional, cell-based; conditions: MCF7, 48 h
# [12] = test system: HT-29; assay: Cytotoxicity against human HT-29 cells assessed as cell growth at 10 uM after 48 hrs by sulforhodamine B assay relative to control; format: functional; conditions: HT-29, 48 h, read-out: Activity
# [13] = test system: M14; assay: Cytotoxicity against human M14 cells assessed as cell growth at 1 uM after 48 hrs by sulforhodamine B assay relative to control; format: functional; conditions: M14, 48 h, read-out: Activity
# [14] = test system: MCF7; assay: Cytotoxicity against human MCF7 cells assessed as cell growth at 0.1 uM after 48 hrs by sulforhodamine B assay relative to control; format: functional; conditions: MCF7, 48 h, read-out: Activity
# [15] = test system: BT-549; assay: Cytotoxicity against human BT549 cells assessed as growth inhibition after 48 hrs by sulforhodamine B assay; format: functional; conditions: BT-549, 48 h
# [16] = test system: CCRF-CEM; assay: Cytotoxicity against human CCRF-CEM cells assessed as cell growth at 0.01 uM after 48 hrs by sulforhodamine B assay relative to control; format: functional; conditions: read-out: Activity
# [17] = test system: SN12C; assay: Cytotoxicity against human SN12C cells assessed as cell growth at 0.1 uM after 48 hrs by sulforhodamine B assay relative to control; format: functional; conditions: read-out: Activity
# [18] = test system: Hs-578T; assay: Cytotoxicity against human Hs 578T cells assessed as cell growth at 1 uM after 48 hrs by sulforhodamine B assay relative to control; format: functional; conditions: read-out: Activity
# [19] = test system: SW-620; assay: Cytotoxicity against human SW620 cells assessed as cell growth at 100 uM after 48 hrs by sulforhodamine B assay relative to control; format: functional; conditions: SW-620, 48 h, read-out: Activity
# [20] = test system: SW-620; assay: Cytotoxicity against human SW620 cells assessed as cell growth at 0.01 uM after 48 hrs by sulforhodamine B assay relative to control; format: functional; conditions: SW-620, 48 h, read-out: Activity
# [21] = test system: SK-MEL-5; assay: Cytotoxicity against human SK-MEL-5 cells assessed as cell growth at 0.1 uM after 48 hrs by sulforhodamine B assay relative to control; format: functional; conditions: SK-MEL-5, 48 h, read-out: Activity
# [22] = test system: HT-29; assay: Cytotoxicity against human HT-29 cells assessed as cell growth at 1 uM after 48 hrs by sulforhodamine B assay relative to control; format: functional; conditions: HT-29, 48 h, read-out: Activity
# [23] = test system: HCT-116; assay: Cytotoxicity against human HCT116 cells assessed as cell growth at 10 uM after 48 hrs by sulforhodamine B assay relative to control; format: functional; conditions: HCT-116, 48 h, read-out: Activity
# [24] = test system: SK-MEL-5; assay: Cytotoxicity against human SK-MEL-5 cells assessed as growth inhibition after 48 hrs by sulforhodamine B assay; format: functional; conditions: SK-MEL-5, 48 h
# [25] = test system: MOLT-4; assay: Cytotoxicity against human MOLT4 cells assessed as cell growth at 100 uM after 48 hrs by sulforhodamine B assay relative to control; format: functional; conditions: MOLT-4, 48 h, read-out: Activity
# [26] = test system: CCRF-CEM; assay: Cytotoxicity against human CCRF-CEM cells assessed as cell growth at 10 uM after 48 hrs by sulforhodamine B assay relative to control; format: functional; conditions: read-out: Activity
# [27] = test system: NCI-H322M; assay: Cytotoxicity against human NCI-H322M cells assessed as cell growth at 1 uM after 48 hrs by sulforhodamine B assay relative to control; format: functional; conditions: read-out: Activity
# [28] = test system: COLO 205; assay: Cytotoxicity against human COLO205 cells assessed as cell growth at 100 uM after 48 hrs by sulforhodamine B assay relative to control; format: functional; conditions: COLO 205, 48 h, read-out: Activity
# [29] = test system: OVCAR-3; assay: Cytotoxicity against human OVCAR3 cells assessed as cell growth at 0.1 uM after 48 hrs by sulforhodamine B assay relative to control; format: functional; conditions: OVCAR-3, 48 h, read-out: Activity
# [30] = test system: HOP-62; assay: Cytotoxicity against human HOP62 cells assessed as cell growth at 100 uM after 48 hrs by sulforhodamine B assay relative to control; format: functional; conditions: HOP-62, 48 h, read-out: Activity
# [31] = test system: IGROV-1; assay: Cytotoxicity against human IGROV1 cells assessed as cell growth at 1 uM after 48 hrs by sulforhodamine B assay relative to control; format: functional; conditions: IGROV-1, 48 h, read-out: Activity
# [32] = test system: NCI-H522; assay: Cytotoxicity against human NCI-H522 cells assessed as cell growth at 10 uM after 48 hrs by sulforhodamine B assay relative to control; format: functional; conditions: NCI-H522, 48 h, read-out: Activity
# [33] = test system: SNB-75; assay: Cytotoxicity against human SNB75 cells assessed as cell growth at 100 uM after 48 hrs by sulforhodamine B assay relative to control; format: functional; conditions: SNB-75, 48 h, read-out: Activity
# [34] = test system: SK-MEL-28; assay: Cytotoxicity against human SK-MEL-28 cells assessed as growth inhibition after 48 hrs by sulforhodamine B assay; format: functional; conditions: SK-MEL-28, 48 h
# [35] = test system: SK-MEL-28; assay: Cytotoxicity against human SK-MEL-28 cells assessed as cell growth at 10 uM after 48 hrs by sulforhodamine B assay relative to control; format: functional; conditions: SK-MEL-28, 48 h, read-out: Activity
# [36] = test system: Malme-3M; assay: Cytotoxicity against human MALME-3M cells assessed as cell growth at 0.1 uM after 48 hrs by sulforhodamine B assay relative to control; format: functional; conditions: read-out: Activity
compound,measurement,setting,value
COc1ccc(C(=O)/C=C/c2cc(-c3ccc4c(c3)OCO4)n[nH]2)cc1OC,growth at 100 µM,[1],-38%
same,growth at 0.1 µM,[2],89%
same,growth at 0.1 µM,[3],100%
same,LC50,[4],> 100 µM
same,TGI,[4],40.3 µM
same,growth at 0.1 µM,[5],93%
same,growth at 0.01 µM,[6],93%
same,growth at 1 µM,[7],92%
same,growth at 10 µM,[8],-39%
same,growth at 10 µM,[9],-43%
same,growth at 100 µM,[10],-97%
same,IC50,[11],2.5 µM
same,growth at 10 µM,[12],2%
same,growth at 1 µM,[13],100%
same,growth at 0.1 µM,[14],94%
same,GI50,[15],1.97 µM
same,LC50 (concentration killing 50% of cells),[15],8.98 µM
same,TGI,[15],4.21 µM
same,growth at 0.01 µM,[16],99%
same,growth at 0.1 µM,[17],95%
same,growth at 1 µM,[18],94%
same,growth at 100 µM,[19],-78%
same,growth at 0.01 µM,[20],100%
same,growth at 0.1 µM,[21],97%
same,growth at 1 µM,[22],93%
same,growth at 10 µM,[23],-9%
same,LC50 (concentration killing 50% of cells),[24],46.4 µM
same,TGI,[24],19.9 µM
same,growth at 100 µM,[25],-20%
same,growth at 10 µM,[26],-2%
same,growth at 1 µM,[27],92%
same,growth at 100 µM,[28],-83%
same,growth at 0.1 µM,[29],104%
same,growth at 100 µM,[30],-80%
same,growth at 1 µM,[31],93%
same,growth at 10 µM,[32],-45%
same,growth at 100 µM,[33],-100%
same,LC50,[34],48.6 µM
same,TGI,[34],19.3 µM
same,growth at 10 µM,[35],36%
same,growth at 0.1 µM,[36],100%
